Assay [1] has as its system antibody production in cell culture. The experiment in a line: Correlation (linear regression, SLOPE) of antibody production with relative concentration of components in plant protein hydrolysates. The class given is cell-based. The settings on record: linear regression over plant protein hydrolysates; higher positive slope = higher importance. The procedure: Commercial plant protein hydrolysates like SE50MAF-UF, WGE80M-UF, CNE80M-UF, PCE80B obtained from FrieslandCampina Domo, USA were analysed by Liquid chromatography/Mass Spectrometry (LC/MS, LC/MS2) using a Waters Acquity UPLC and a Thermo-Finnigan LTQ mass spectrometer, which consists of an electrospray ionization (ESI) source and linear ion-trap (LIT) mass analyzer. The sample extract was split into two aliquots, dried, then reconstituted in acidic or basic LC-compatible solvents. One aliquot was analyzed using acidic positive ion optimized conditions and the other using basic negative ion optimized conditions in two independent injections using separate dedicated columns. […] Using the SLOPE function of Microsoft Excel 2003, the correlation between antibody production and relative concentration of the components was calculated, the results of which are presented in Table 1 below. The higher the positive slope, the higher the importance of a biochemical component in the cell culture. p-values, also calculated using MS Excel's correlation regression function, represent the significance of the values, with the lower the p-value (all between 0 and 1), the more significant the measured value.

For assay [2], the system named is IgG expressing CHO cell line (CHO-2: ATCC CRL 11397, producing IgG4). The experiment in a line: Cell growth (area under growth curve) of CHO cells in supplemented chemically defined medium. The format is cell-based, Chinese hamster. The settings on record: dimensionless AUC. The procedure:
(§1) The cell culture assay was carried out in commercially available IS CHO-CD medium (Irvine Scientific, Cat. No. 91119). To this media, L-Glutamine (2 mM), pluronic acid, hypoxanthine (100 μM) and thymidine (15 μM) were added. Penicillin and streptomycin were added to prevent any bacterial growth during the growth assay. The media was supplemented with sodium-L-lactate, methyl-L-3-phenyl lactate, mucic acid, D-chiro-inositol, ferulic acid, syringic acid, adenine (A2786) and trigonelline, all purchased from Sigma Aldrich, Germany, in varying concentrations (see Table 2). The supplemented medium was mixed with a vortex mixture, filtered using a 0.22 μm filter and subsequently used in a growth assay.
(§2) An IgG expressing CHO cell line was used (CHO-2: ATCC CRL 11397, producing IgG4). The cell lines were grown in the adherent conditions for a few passages and once confluent, they were transferred to animal-free conditions in the supplemented media described in Example 2.
(§3) To measure growth and production curves, Chinese hamster ovary (CHO) cells were grown in suspension culture in baffled flasks. 20×10^6 cells were transferred in 25 ml media to the baffled flasks. Chemically defined media with and without added cell culture medium components were tested. No fresh media was added during the growth assay. Cells were counted using the CEDEX HiRes cell counter (Innovatis, Germany). The cell counts were used to calculate the area under the growth curve and represented as dimensionless area under curve (AUC) values as described in detail in Ling, C. X, Huang, J. and Zhang, H. (2003), International joint conferences on artificial intelligence, pp. 329-341. The supernatant samples were taken every alternate days for the IgG production measurements. IgG production was measured using sandwich ELISA method. The specific IgG production was calculated by taking the ratio of cumulative IgG production (in mg/ml) and AUC measured at day 11 of the growth assay. The cells were visually inspected using a phase contrast microscope (Zeiss Axiovert 25, 400× magnification). […] Only single cells were observed and no aggregation of cells was seen. The cell shape was also positively affected. […] This was in contrast with the observation that a lot of cell aggregates were present in CHO cell cultures grown in chemically defined medium without cell culture medium components.
(§4) Table 2A and 2B. Specific IgG production and cell growth of CHO cells in chemically defined cell culture medium (see Example 5 for details) with added cell culture medium components of the invention in varying concentrations. Production and growth data in chemically defined cell culture medium without added alpha-hydroxy acid derivatives, as well as in chemically defined cell culture medium supplemented with soy protein hydrolysate (0.4% w/v) and with fetal calf serum (Gibco-Invitrogen; 5% v/v) are provided for comparison.

The test system is the same in assay [3]. The experiment in a line: Specific IgG production of IgG expressing CHO cells in supplemented chemically defined medium (sandwich ELISA / AUC). The class given is cell-based, Chinese hamster. The settings on record: ratio of cumulative IgG production (mg/ml) and AUC at day 11. The procedure:
as §1, §2, §3, §4
A general note: In an ELISA, binding on a coated surface is turned into a signal by an enzyme label.

The mark [4] stands for this setting: component added at 1 × 10^−1 % w/v.
The mark [5] stands for this setting: component added at 1 × 10^−2 % w/v.
The mark [6] stands for this setting: component added at 1 × 10^−3 % w/v.

Peptide text beside a SMILES is read from it.

With `O=C(O)CC[C@@H]1NC(=O)CNC1=O` [cyclo(Gly-Glu)], the “SLOPE (correlation of antibody production and relative concentration of cell culture medium component)” value in assay [1] was 1584.22.
As for `OC1C(O)C(O)C(O)C(O)C1O` [D-Chiro-inositol, D-chiro-inositol], the “Cell growth (area under curve) after 14 days” value (from here on “Cell growth (area under curve)”) in assay [2] (setting [4]) was determined as 64.24; in assay [2] (setting [5]), 51.22; in assay [2] (setting [6]) it was 50.18. For the same compound, the results for the “Specific IgG production after 11 days” value in assay [3] (setting [4]), in assay [3] (setting [5]) and in assay [3] (setting [6]) were 60.22, 93.05 and 102.40, respectively.
On to `Nc1ncnc2nc[nH]c12` [adenine], for which the “Specific IgG production after 11 days” value in assay [3] (setting [5]) is 100.8; in assay [3] (setting [6]), 82.4.
Turning to `CC(C)[C@H](N)C(=O)N[C@@H](CCC(=O)O)C(=O)O` [valinylglutamate] (H-Val-Glu-OH), the “SLOPE (correlation of antibody production and relative concentration of cell culture medium component)” value in assay [1] is 2064.16.
Consider `COc1cc(/C=C/C(=O)O)ccc1O` [ferulic acid, (E)-3-(4-hydroxy-3-methoxy-phenyl)prop-2-enoic acid], for which the entries for the “Cell growth (area under curve)” value in assay [2] (setting [4]), in assay [2] (setting [5]) and in assay [2] (setting [6]) were 66.3, 51.3 and 49.7, respectively. For the same compound, the “Specific IgG production after 11 days” value stood at 60.5 in assay [3] (setting [4]), 86.3 in assay [3] (setting [5]) and 124.2 in assay [3] (setting [6]).
Turning to `COc1cc(C(=O)O)cc(OC)c1O` [Syringic Acid, 4-hydroxy-3,5-dimethoxybenzoic acid], the “Cell growth (area under curve)” value stood at 60.0 in assay [2] (setting [4]), 58.8 in assay [2] (setting [5]) and 53.4 in assay [2] (setting [6]). The “Specific IgG production after 11 days” value in assay [3] (setting [4]) stood at 96.8; in assay [3] (setting [5]), 93.2; in assay [3] (setting [6]), 77.3.
For the compound `C[C@H](O)C(=O)[O-].[Na+]` [Sodium-L-lactate, sodium-L-lactate], the “Cell growth (area under curve)” value in assay [2] (setting [4]) is given as 61.83. In addition, in assay [3] (setting [4]), the “Specific IgG production after 11 days” value was determined as 93.77.
As to `C[n+]1cccc(C(=O)[O-])c1` [trigonelline, 1-methylpyridinium-3-carboxylate], the “Specific IgG production after 11 days” value in assay [3] (setting [4]) was found to be 83.65; in assay [3] (setting [5]), 75.68.

(Values after patent publication US20150031128A1, “CULTURE MEDIUM FOR EUKARYOTIC CELLS” (Friesland Brands B.V., priority 2012, published 2015).)
